In publication doi:10.1101/2021.04.08.439011v1 (biorxiv, 2021):
Like-named read-outs stand apart in the source and are kept apart here.

Legend:
[1] = biological target: ABL1(Q252H) (Homo sapiens, UniProt P00519, Q252H); details: 0.1 µM, binder
[2] = biological target: ARK5 (Homo sapiens, UniProt O60285); details: 0.1 µM; binder
[3] = biological target: CSNK1A1 (Homo sapiens, UniProt P48729); details: 0.1 µM; binder
[4] = biological target: CSNK1G3 (Homo sapiens, UniProt Q9Y6M4); details: 0.1 µM; binder
Chain of CSNK1G3 (Q9Y6M4 whole entry): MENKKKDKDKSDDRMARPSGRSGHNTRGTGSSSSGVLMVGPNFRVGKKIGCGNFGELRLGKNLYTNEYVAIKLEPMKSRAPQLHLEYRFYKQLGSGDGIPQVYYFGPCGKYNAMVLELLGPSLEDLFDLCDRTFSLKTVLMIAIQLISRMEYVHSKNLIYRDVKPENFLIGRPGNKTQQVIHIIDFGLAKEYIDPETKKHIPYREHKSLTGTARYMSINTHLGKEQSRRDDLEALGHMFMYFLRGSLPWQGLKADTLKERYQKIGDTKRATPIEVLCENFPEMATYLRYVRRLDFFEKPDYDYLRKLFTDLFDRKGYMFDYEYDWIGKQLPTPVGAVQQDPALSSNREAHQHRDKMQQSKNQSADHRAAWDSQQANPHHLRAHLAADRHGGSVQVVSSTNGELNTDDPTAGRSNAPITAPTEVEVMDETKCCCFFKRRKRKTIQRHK

[5] = biological target: DCAMKL1 (Homo sapiens, UniProt O15075); details: 0.1 µM; binder
[6] = biological target: DRAK1 (Homo sapiens, UniProt Q9UEE5); details: 0.1 µM; binder
[7] = biological target: EPHA2 (Homo sapiens, UniProt P29317); details: 0.1 µM; binder
Chain of EPHA2 (P29317 whole entry): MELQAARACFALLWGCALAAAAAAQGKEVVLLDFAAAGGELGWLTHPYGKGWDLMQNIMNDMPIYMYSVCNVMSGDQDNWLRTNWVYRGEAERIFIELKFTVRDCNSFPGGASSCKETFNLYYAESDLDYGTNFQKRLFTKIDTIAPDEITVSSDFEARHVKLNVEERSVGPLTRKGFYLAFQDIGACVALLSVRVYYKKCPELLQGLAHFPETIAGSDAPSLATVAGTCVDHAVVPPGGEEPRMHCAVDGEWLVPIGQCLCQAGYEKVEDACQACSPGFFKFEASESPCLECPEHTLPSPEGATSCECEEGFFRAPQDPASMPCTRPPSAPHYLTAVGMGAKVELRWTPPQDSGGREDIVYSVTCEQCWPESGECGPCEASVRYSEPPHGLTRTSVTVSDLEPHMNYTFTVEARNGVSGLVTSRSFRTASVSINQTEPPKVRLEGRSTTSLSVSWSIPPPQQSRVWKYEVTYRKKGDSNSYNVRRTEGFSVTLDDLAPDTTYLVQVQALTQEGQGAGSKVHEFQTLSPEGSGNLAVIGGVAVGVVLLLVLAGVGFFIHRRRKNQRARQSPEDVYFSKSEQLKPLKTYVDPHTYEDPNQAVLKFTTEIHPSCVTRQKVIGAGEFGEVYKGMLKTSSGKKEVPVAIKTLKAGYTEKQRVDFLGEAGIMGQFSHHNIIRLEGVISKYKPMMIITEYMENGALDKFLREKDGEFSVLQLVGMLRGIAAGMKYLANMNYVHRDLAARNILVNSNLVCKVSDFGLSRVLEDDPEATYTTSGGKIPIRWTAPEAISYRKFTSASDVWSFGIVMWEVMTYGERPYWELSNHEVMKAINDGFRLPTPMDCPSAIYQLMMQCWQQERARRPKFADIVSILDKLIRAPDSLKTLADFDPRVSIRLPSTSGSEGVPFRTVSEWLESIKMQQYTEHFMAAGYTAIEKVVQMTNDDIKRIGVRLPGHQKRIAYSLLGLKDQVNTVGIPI

[8] = biological target: EPHB2 (Homo sapiens, UniProt P29323); details: 0.1 µM; binder
[9] = biological target: FGFR3(G697C) (Homo sapiens, UniProt P22607, G697C); details: 0.1 µM; binder
[10] = biological target: FLT3(ITD) (Homo sapiens, UniProt P36888); details: 0.1 µM; binder
[11] = biological target: HIPK2 (Homo sapiens, UniProt Q9H2X6); details: 0.1 µM; binder
[12] = biological target: INSR (Homo sapiens, UniProt P06213); details: 0.1 µM; binder
[13] = biological target: KIT(V559D) (Homo sapiens, UniProt P10721, V559D); details: 0.1 µM; binder
[14] = biological target: MAP3K15 (Homo sapiens, UniProt Q6ZN16); details: 0.1 µM; binder
[15] = biological target: MAP4K4 (Homo sapiens, UniProt O95819); details: 0.1 µM; binder
[16] = biological target: MARK2 (Homo sapiens, UniProt Q7KZI7); details: 0.1 µM; binder
[17] = biological target: MAST1 (Homo sapiens, UniProt Q9Y2H9); details: 0.1 µM; binder
[18] = biological target: MYLK (Homo sapiens, UniProt Q15746); details: 0.1 µM; binder
[19] = biological target: NIM1 (Homo sapiens, UniProt Q8IY84); details: 0.1 µM; binder
[20] = biological target: PAK3 (Homo sapiens, UniProt O75914); details: 0.1 µM; binder
Chain of PAK3 (O75914 whole entry): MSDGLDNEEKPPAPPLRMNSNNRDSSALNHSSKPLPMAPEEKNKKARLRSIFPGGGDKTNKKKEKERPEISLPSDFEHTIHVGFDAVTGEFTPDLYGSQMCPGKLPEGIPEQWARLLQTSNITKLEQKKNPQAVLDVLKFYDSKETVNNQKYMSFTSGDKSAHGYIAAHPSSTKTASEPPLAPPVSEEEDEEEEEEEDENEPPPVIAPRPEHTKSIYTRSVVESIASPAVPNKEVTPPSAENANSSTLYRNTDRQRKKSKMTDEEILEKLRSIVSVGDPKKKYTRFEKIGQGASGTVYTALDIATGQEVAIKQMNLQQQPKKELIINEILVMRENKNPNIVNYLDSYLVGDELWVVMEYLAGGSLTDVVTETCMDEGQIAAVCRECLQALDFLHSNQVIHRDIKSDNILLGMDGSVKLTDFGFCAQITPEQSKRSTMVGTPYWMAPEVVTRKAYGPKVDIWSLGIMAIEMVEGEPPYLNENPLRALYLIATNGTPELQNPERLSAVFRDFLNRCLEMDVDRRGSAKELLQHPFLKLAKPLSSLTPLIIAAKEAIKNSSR

[21] = biological target: PIKFYVE (Homo sapiens, UniProt Q9Y2I7); details: 0.1 µM; binder
Chain of PIKFYVE (Q9Y2I7 whole entry): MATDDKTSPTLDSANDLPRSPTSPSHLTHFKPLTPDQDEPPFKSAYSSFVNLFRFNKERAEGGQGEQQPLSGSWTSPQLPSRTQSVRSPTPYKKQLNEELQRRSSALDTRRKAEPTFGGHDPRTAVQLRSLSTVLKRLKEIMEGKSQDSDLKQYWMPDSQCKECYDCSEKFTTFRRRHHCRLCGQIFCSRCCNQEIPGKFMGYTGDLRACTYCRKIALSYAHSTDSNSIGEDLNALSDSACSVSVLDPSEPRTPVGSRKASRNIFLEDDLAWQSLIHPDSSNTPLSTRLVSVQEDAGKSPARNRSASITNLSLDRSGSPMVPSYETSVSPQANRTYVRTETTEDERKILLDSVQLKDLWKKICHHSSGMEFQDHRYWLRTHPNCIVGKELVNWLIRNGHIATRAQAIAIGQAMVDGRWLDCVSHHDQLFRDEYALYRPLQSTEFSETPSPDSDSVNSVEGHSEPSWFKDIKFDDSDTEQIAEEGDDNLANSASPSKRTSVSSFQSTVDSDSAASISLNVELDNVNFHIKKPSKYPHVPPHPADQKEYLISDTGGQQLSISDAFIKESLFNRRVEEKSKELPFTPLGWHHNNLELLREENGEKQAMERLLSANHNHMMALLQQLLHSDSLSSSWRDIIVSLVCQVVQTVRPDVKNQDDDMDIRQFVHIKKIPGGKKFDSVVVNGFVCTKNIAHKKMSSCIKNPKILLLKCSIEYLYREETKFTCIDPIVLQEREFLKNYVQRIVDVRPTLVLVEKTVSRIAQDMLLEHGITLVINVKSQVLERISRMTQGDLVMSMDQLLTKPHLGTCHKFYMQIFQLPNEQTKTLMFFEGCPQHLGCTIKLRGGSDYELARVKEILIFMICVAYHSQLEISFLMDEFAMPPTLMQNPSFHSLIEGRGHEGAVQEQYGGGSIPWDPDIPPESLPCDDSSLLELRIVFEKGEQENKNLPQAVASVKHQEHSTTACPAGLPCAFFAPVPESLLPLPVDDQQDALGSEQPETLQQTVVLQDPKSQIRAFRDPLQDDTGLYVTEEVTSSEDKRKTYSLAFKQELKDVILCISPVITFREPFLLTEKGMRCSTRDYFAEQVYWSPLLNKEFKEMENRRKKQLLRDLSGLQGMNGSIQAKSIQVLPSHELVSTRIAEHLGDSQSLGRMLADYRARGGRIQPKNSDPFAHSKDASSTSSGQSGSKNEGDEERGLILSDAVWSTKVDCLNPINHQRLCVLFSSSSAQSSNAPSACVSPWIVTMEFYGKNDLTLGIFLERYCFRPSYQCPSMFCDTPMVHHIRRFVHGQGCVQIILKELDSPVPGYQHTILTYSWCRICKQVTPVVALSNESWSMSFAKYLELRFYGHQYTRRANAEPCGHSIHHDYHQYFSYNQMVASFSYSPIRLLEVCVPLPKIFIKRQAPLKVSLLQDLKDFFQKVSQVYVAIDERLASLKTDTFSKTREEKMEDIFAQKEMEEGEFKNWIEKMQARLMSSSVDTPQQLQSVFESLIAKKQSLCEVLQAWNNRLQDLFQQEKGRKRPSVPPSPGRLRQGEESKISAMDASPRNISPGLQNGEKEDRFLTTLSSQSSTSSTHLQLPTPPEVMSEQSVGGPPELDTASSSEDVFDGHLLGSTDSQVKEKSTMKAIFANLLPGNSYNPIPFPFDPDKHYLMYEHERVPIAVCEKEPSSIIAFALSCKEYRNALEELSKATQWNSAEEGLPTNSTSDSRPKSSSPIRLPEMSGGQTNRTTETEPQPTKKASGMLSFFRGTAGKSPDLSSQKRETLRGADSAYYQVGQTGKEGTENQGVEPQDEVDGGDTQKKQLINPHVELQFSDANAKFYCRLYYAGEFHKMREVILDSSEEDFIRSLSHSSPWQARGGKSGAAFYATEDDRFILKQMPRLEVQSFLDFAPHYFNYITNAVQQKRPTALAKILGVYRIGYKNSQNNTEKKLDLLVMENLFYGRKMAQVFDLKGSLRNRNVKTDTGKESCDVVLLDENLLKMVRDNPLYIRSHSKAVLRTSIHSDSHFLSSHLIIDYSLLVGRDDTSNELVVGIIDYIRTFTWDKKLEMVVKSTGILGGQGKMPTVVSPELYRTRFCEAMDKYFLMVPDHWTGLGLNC

[22] = biological target: PIP4K2B (Homo sapiens, UniProt P78356); details: 0.1 µM; binder
[23] = biological target: PLK1 (Homo sapiens, UniProt P53350); details: 0.1 µM; binder
[24] = biological target: PLK4 (Homo sapiens, UniProt O00444); details: 0.1 µM; binder
[25] = biological target: PRKX (Homo sapiens, UniProt P51817); details: 0.1 µM; binder
[26] = biological target: RIOK2 (Homo sapiens, UniProt Q9BVS4); details: 0.1 µM; binder
[27] = biological target: SIK1 (Homo sapiens, UniProt P57059); details: 0.1 µM; binder
Chain of SIK1 (P57059 whole entry): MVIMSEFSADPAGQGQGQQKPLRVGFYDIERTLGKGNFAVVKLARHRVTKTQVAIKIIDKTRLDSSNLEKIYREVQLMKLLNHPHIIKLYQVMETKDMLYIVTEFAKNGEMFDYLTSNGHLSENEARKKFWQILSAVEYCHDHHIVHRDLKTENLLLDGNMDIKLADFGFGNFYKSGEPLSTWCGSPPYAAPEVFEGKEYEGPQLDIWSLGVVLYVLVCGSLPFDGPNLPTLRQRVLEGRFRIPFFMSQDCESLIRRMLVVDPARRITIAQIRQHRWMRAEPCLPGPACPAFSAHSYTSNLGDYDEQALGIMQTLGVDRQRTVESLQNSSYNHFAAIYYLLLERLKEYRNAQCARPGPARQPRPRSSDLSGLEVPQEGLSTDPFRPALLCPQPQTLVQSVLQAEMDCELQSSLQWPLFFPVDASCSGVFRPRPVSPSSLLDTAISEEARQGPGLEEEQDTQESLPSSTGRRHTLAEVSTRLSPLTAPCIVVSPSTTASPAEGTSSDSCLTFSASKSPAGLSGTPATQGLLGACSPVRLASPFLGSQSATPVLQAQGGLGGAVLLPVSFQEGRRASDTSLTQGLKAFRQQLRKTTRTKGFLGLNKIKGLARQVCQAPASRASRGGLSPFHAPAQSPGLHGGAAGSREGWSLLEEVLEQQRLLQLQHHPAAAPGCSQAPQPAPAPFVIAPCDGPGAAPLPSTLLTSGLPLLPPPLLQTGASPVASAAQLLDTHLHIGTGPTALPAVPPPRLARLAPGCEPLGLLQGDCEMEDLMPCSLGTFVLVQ

[28] = biological target: STK16 (Homo sapiens, UniProt O75716); details: 0.1 µM; binder
[29] = biological target: TGFBR1 (Homo sapiens, UniProt P36897); details: 0.1 µM; binder
[30] = biological target: VPS34 (Homo sapiens, UniProt Q8NEB9); details: 0.1 µM; binder
[31] = biological target: WEE1 (Homo sapiens, UniProt P30291); details: 0.1 µM; binder

CNc1ncc2cc(-c3ccc(-c4cccc(C)n4)cc3Cl)c(=O)n(C[C@H]3OC[C@H](N)CO3)c2n1 [compound 6, G-5555]
Percent Control ([1]; nonphosphorylated): 86%
Percent Control ([1]; phosphorylated): 97%
Percent Control [2]: 87%
Percent Control [3]: 100%
Percent Control [4]: 100%
Percent Control [5]: 80%
Percent Control [6]: 79%
Percent Control [7]: 100%
Percent Control [8]: 100%
Percent Control [9]: 99%
Percent Control [10]: 100%
Percent Control [11]: 100%
Percent Control [12]: 95%
Percent Control [13]: 99%
Percent Control [14]: 72%
Percent Control [15]: 100%
Percent Control [16]: 100%
Percent Control [17]: 47%
Percent Control [18]: 75%
Percent Control [19]: 89%
Percent Control [20]: 100%
Percent Control [21]: 100%
Percent Control [22]: 68%
Percent Control [23]: 82%
Percent Control [24]: 84%
Percent Control [25]: 100%
Percent Control [26]: 100%
Percent Control [27]: 1.4%
Percent Control [28]: 100%
Percent Control [29]: 99%
Percent Control [30]: 86%
Percent Control [31]: 98%
